Results on 1 molecule are retold here after US20230133958A1, “COMPOUNDS USEFUL IN MODULATING EGFR AND PI3K” (Mekanistic Therapeutics LLC, priority 2021, published 2023).

Structures are written as SMILES. Values after ≈ are worked out from the molar mass of the structure shown.

The target of one data set is P13Kγ (Homo sapiens, UniProt P48736). The data set is described as follows: Z'-LYTE / Adapta biochemical kinase assay, PI3Kγ. An excerpt:
(§1) The Z′-LYTE® biochemical assay employs a fluorescence-based, coupled-enzyme format and is based on the differential sensitivity of phosphorylated and non-phosphorylated peptides to proteolytic cleavage. The peptide substrate is labeled with two fluorophores—one at each end—that make up a FRET pair. In the primary reaction, the kinase transfers the gamma-phosphate of ATP to a single tyrosine, serine or threonine residue in a synthetic FRET-peptide. In the secondary reaction, a site-specific protease recognizes and cleaves non-phosphorylated FRET-peptides. Phosphorylation of FRET-peptides suppresses cleavage by the Development Reagent. […] A ratiometric method, which calculates the ratio (the Emission Ratio) of donor emission to acceptor emission after excitation of the donor fluorophore at 400 nm, is used to quantitate reaction progress.
(§2) A significant benefit of this ratiometric method for quantitating reaction progress is the elimination of well-to-well variations in FRET-peptide concentration and signal intensities. […]
(§3) Both cleaved and uncleaved FRET-peptides contribute to the fluorescence signals and therefore to the Emission Ratio. The extent of phosphorylation of the FRET-peptide can be calculated from the Emission Ratio. […]

A further data set concerns the target PI3Kβ (Homo sapiens, UniProt P42338). The data set is described as follows: Z'-LYTE / Adapta biochemical kinase assay, PI3Kβ.
Excerpt: as §1, §2, §3

The nature of data set [1]: Solubility assessment in aqueous media. The class given is physicochemical. The note with it: kinetic from dmso stock, 25° C. As to the method:
Preparation of stock solutions: The stock solutions of test compounds and control compound diclofenac were prepared in DMSO at the concentrations of 10 mM.
Procedure for solubility determination: 15 µL of stock solution (10 mM) of each sample was placed in order into their proper 96-well rack. 485 µL of (SIF, SGF, PBS 7.4, FESSIF, or FESSGF) was added into each vial of the cap-less Solubility Sample plate. The assay was performed in duplicate. Add one stir stick to each vial and seal using a molded PTFE/Silicone plug. […] After completion of the 2 hours, plugs were removed and the stir sticks were removed using a big magnet, the samples from the Solubility Sample plate were transferred into the filter plate. Using the Vacuum Manifold, all the samples were filtered. Aliquot of 5 µL and 5 µL DMSO were taken from the filtrate followed by addition of 490 µL of a mixture of H2O and acetonitrile containing internal standard (1:1). A certain proportion of ultrapure water was used to dilute the diluent according to the peak shape. The dilution factor was changed according to the solubility values and the LC-MS signal response.
Preparation of 300 µM standards (STD): From the 10 mM DMSO STD plate, 6 µL was transferred into the remaining empty plate, and then 194 µL of DMSO was added to that plate to have a STD concentration of 300 µM. From the 300 µM DMSO STD plate, 5 µL DMSO STD and 5 µL SIF was transferred into the remaining empty plate, and then 490 µL of a mixture of H2O and acetonitrile containing internal standard (1:1) was added to that plate to have a final STD concentration of 3 µM. […]
Procedure for sample analysis: The plate was placed into the well plate autosampler. The samples were evaluated by LC-MS/MS analysis.
Data analysis: All calculations were carried out using Microsoft Excel. The filtrate was analyzed and quantified against a standard of known concentration using LC coupled with mass spectral peak identification and quantitation. Solubility values of the test compound and control compound were calculated as follows: […]

The target of the next data set is P13Kδ (Homo sapiens, UniProt O00329). The data set can be described thus: Z'-LYTE / Adapta biochemical kinase assay, PI3Kδ.
Excerpt: as §1, §2, §3

For the next data set, the target named is HER2 (Homo sapiens, UniProt P04626). The data set is described as follows: Z'-LYTE / Adapta biochemical kinase assay, HER2.
Excerpt: as §1, §2, §3

P13Kδ, sequence (O00329 whole entry, stated change not applied): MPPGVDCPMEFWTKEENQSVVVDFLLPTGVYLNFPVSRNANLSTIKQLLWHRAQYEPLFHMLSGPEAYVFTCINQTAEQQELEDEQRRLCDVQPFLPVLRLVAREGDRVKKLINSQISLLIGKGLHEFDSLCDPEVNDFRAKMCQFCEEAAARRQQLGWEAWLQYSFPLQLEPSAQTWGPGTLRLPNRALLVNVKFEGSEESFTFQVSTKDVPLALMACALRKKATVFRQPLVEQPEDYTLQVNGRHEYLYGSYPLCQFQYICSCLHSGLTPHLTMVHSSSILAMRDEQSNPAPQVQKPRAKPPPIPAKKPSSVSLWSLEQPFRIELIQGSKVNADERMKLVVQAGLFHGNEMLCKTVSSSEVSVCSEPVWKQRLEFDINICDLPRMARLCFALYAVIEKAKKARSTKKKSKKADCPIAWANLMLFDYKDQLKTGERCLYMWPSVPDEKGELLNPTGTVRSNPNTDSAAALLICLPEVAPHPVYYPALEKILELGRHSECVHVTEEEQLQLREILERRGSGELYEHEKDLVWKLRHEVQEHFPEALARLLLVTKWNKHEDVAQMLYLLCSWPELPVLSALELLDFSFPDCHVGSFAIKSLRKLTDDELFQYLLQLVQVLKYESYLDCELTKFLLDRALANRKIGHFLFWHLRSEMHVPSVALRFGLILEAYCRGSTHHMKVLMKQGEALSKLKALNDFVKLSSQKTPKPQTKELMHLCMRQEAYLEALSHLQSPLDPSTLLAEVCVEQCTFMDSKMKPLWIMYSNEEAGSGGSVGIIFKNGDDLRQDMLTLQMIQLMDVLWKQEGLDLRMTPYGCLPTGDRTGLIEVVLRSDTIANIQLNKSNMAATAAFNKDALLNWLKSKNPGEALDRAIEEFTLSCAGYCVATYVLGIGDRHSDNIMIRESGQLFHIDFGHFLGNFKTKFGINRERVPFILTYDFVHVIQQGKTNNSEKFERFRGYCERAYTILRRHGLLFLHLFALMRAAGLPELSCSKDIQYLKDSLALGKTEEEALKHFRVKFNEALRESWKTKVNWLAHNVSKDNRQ
P13Kδ, sequence (P27986 2-724 partner limits assumed): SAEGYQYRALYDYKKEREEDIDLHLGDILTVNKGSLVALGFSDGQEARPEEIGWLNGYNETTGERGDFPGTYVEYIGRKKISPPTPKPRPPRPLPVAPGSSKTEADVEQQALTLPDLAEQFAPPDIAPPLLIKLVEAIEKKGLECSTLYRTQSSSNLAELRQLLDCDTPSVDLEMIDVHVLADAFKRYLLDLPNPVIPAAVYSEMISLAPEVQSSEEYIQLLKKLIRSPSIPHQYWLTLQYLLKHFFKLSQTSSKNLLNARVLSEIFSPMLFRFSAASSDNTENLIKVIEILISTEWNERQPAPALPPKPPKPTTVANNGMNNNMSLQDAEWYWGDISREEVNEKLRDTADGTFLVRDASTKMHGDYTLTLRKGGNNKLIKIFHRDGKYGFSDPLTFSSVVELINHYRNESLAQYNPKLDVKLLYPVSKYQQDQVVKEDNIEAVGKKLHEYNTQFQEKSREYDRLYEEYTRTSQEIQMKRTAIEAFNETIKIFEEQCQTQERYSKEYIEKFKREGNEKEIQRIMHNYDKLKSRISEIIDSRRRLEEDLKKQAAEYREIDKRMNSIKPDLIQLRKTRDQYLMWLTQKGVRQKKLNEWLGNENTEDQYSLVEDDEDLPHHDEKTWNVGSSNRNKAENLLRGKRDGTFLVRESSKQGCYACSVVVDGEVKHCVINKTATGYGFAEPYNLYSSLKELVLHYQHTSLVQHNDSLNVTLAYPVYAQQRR
PI3Kβ, sequence (P42338 whole entry): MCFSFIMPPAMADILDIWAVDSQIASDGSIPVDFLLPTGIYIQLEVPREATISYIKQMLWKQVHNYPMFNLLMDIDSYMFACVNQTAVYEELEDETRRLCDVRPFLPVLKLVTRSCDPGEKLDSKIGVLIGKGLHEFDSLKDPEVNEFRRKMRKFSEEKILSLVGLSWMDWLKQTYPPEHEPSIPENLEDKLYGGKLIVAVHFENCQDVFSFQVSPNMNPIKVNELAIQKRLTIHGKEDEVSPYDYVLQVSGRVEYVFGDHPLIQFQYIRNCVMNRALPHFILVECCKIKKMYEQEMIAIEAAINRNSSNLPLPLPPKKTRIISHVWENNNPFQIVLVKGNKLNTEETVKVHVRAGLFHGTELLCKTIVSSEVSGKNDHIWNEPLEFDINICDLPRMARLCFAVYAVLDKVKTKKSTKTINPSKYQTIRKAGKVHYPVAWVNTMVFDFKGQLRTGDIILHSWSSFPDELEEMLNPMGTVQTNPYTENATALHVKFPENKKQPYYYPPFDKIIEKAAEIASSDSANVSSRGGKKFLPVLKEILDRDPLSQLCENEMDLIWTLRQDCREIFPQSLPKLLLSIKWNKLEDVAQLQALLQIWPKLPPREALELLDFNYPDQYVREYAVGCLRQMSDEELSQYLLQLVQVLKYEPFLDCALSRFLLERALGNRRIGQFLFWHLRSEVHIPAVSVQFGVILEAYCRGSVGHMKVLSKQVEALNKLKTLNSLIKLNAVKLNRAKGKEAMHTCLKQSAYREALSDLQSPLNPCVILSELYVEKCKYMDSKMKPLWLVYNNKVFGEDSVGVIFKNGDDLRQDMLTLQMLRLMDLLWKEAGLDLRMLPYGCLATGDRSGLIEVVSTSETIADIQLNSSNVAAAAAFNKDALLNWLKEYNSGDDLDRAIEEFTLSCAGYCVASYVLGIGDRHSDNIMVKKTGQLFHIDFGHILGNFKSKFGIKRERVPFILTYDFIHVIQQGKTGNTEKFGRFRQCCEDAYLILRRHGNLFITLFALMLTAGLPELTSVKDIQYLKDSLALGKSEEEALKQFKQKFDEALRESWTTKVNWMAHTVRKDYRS
PI3Kβ, sequence (P27986 whole entry partner): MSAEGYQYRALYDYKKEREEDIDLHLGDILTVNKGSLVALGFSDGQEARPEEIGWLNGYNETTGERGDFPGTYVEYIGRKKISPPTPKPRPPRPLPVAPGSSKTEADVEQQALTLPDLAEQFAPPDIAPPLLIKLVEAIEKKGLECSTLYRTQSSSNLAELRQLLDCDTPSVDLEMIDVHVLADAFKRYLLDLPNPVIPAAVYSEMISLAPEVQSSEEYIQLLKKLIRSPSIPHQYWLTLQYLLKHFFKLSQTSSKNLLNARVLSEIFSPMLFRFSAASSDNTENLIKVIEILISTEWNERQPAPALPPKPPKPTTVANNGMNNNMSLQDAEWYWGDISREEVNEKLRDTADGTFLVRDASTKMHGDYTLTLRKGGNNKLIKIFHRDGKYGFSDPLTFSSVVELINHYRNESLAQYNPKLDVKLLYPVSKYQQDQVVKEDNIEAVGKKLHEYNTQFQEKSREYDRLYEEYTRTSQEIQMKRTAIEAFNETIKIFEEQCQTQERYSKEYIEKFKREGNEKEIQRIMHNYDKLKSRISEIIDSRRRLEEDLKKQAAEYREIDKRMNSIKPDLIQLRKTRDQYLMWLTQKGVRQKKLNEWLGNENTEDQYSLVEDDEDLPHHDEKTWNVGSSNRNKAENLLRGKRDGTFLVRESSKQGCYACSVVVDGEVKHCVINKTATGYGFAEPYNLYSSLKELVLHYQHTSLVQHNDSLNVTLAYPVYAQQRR
P13Kγ, sequence (P48736 whole entry, stated change not applied): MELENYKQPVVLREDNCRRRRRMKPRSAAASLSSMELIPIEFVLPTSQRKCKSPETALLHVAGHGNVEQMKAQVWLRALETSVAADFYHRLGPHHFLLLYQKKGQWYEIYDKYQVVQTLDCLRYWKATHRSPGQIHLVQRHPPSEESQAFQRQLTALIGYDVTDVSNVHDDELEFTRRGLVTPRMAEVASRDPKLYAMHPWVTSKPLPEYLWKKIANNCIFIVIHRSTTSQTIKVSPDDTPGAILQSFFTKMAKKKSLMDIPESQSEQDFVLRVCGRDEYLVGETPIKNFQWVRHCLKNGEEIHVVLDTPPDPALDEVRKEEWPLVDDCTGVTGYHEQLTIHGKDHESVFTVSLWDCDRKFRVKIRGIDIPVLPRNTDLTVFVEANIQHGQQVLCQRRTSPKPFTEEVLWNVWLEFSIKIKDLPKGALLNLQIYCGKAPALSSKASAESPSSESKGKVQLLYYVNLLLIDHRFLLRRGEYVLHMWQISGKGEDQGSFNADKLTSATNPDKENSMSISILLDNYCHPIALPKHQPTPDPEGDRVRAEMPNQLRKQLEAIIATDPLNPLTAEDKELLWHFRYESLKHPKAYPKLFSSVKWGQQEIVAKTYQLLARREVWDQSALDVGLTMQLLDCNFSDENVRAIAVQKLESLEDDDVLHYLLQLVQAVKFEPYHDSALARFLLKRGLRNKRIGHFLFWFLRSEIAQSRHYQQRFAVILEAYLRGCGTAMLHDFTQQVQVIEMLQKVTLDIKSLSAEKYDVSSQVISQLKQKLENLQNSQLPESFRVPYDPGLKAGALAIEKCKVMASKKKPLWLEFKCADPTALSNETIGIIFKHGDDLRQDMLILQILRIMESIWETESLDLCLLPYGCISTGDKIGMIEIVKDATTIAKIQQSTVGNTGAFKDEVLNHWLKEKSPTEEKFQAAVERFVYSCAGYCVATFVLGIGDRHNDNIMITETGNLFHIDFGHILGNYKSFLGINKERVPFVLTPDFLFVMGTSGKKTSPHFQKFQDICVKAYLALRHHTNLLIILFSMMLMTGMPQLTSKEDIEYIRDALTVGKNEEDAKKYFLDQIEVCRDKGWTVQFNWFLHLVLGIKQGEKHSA

One may read the IC50 as the midpoint of a concentration-inhibition curve. Low values mean higher potency, high ones lower potency. The term solubility denotes the concentration that dissolves in the medium under given conditions. The low end stands for little dissolved substance, the high end for much dissolved substance. Regarding `CS(=O)(=O)Nc1cc(-c2ccc3ncnc(Nc4cccc(Cl)c4F)c3c2)cnc1Cl` [Compound 6, N-[2-chloro-5-[4-(3-chloro-2-fluoro-anilino)quinazolin-6-yl]-3-pyridyl] methanesulfonamide], the IC50 is at most 2 nM on P13Kγ, 20 to 200 nM against PI3Kβ, at most 2 nM against P13Kδ and over 200 nM at HER2. For the same molecule, the solubility at 2 h in data set [1] (PBS pH 7.4, aqueous buffer, pH 7.4 Buffer) was 5 to 100 µM (≈ 2.39 to 47.8 µg/mL); in data set [1] (fassgf or other biorelevant, Simulated Intestinal Fluid (SIF)), 5 to 100 µM (≈ 2.39 to 47.8 µg/mL); in data set [1] (Simulated Gastric Fluid (SGF)) it was over 200 µM.
